{"source": "patent US9682980B2", "about": "“Positive allosteric modulators of mGluR2” (BRISTOL-MYERS SQUIBB COMPANY, priority 2012, dated 2017)", "target": "human mGluR2 (Homo sapiens (Human), UniProt Q14416)", "sequence (Q14416 19-872)": "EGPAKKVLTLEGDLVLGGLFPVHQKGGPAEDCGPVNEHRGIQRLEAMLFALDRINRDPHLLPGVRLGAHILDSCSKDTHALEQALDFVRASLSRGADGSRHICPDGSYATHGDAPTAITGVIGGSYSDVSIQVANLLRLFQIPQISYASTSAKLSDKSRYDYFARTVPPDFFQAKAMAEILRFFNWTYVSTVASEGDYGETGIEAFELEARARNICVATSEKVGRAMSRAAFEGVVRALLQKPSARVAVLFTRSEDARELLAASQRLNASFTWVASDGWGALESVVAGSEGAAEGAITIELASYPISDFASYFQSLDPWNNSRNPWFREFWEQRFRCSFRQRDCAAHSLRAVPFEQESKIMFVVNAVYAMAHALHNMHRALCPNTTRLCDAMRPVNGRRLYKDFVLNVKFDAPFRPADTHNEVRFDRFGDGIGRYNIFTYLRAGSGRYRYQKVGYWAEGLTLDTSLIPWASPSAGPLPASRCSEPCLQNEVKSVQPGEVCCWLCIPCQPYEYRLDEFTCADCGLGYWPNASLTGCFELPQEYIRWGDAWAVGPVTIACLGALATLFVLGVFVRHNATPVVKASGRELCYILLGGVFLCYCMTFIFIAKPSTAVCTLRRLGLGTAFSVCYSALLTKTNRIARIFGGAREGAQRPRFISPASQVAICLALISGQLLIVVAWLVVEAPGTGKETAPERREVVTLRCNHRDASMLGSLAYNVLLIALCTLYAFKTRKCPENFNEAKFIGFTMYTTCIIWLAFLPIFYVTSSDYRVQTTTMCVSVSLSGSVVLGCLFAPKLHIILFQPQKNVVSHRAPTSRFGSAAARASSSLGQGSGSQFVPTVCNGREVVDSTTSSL", "test": "MGluR2 cAMP assay", "format": "cell-based", "conditions": "HEK293 cells clonally expressing human mGluR2, 1 μM forskolin, 1 μM LY-341495", "method": "Clonally expressed human mGluR2 in HEK293 background was glutamate starved overnight in media without glutamine (GIBCO MEM 12360), containing 10% FBS, 1% penicillin streptomycin.\nOn the day of the assay, media was removed, cells washed with PBS, cells harvested and pelleted by centrifugation. Cell pellets were resuspended in stimulation buffer without forskolin and counted. A solution of 1.25×10^6 cells/ml was prepared and dispensed to plates using a Combi liquid handler (Thermo). A standard curve was created using a top concentration of cAMP of 1 μM in the stimulation buffer, 1:3 dilutions over 14 points in the absence of cells. Plates were read by time-resolved fluorescence at […] and a ratio was calculated via in house software, (665 nM/618 nM)*10^4. In house software converted the fluorescence value ratios to units of cAMP concentration, which is then used to calculate % inhibition for each test compound.\nCompounds were added to white, standard volume 384 non-binding surface plates (Corning 3574). Cells were resuspended in stimulation buffer consisting of Hanks Balanced Salt Solution (14175-095) pH 7.0, 20 mM HEPES, 2.0 mM CaCl2, 5.0 mM MgCl2, and 1 mM IBMX (Sigma 15879), 1 μM forskolin, and 1 μM LY-341495, for 30 minutes. Buffer without forskolin was used as a negative control. Solutions of D2 and cryptate detection reagents from the CISBIO dynamic cAMP kit (62AM4PEJ) were diluted 1:40 in lysis buffer. Lysis buffer consisted of 50 mM Phosphate Buffer pH 7.0, 800 mM Potassium Fluoride, 0.2% BSA, and 1.0% Triton. Assay reaction was terminated by addition of detection reagents in lysis buffer. One hour later, plates were read on a PE Viewlux. Data was extracted, and concentration response curves generated by fitting the data to a standard 4 parameter logistic equation from which EC50 values were determined See table 1: A: <10 nM; B: 10-100 nM; C: 100-1000 nM; D: 1000-10000 nM.", "data": [{"smiles": "Fc1ccc([C@@H]2C[C@H]2CNc2cnn3c(CC4CC4)nnc3c2Cl)cc1", "note": "(racemic) [Example 9, Trans-8-chloro-3-(cyclopropylmethyl)-N-((2-(4-fluorophenyl)cyclopropyl)methyl)-[1,2,4]triazolo[4,3-b]pyridazin-7-amine]", "values": [{"measurement": "EC50", "result": 0.076, "unit": "µM"}]}, {"smiles": "COc1ccccc1[C@@H]1C[C@H]1CNc1cnn2c(CC(F)(F)F)nnc2c1C(F)(F)F", "note": "(relative stereo) [Example 85, Trans-N-((2-(2-methoxyphenyl)cyclopropyl)methyl)-3-(2,2,2-trifluoroethyl)-8-(trifluoromethyl)-[1,2,4]triazolo[4,3-b]pyridazin-7-amine]", "values": [{"measurement": "EC50", "result": 0.01, "unit": "µM"}]}, {"smiles": "Clc1c(N2CCC(c3ccccc3)CC2)ncn2c(CC3CC3)nnc12", "note": "[Example 1, 8-Chloro-3-(cyclopropylmethyl)-7-(4-phenylpiperidin-1-yl)-[1,2,4]triazolo[4,3-c]pyrimidine]", "values": [{"measurement": "EC50", "result": 0.008, "unit": "µM"}]}, {"smiles": "Cc1c(N2CCC(c3ccccc3)CC2)ncn2c(CC3CC3)nnc12", "note": "[Example 2, 3-(Cyclopropylmethyl)-8-methyl-7-(4-phenylpiperidin-1-yl)-[1,2,4]triazolo[4,3-c]pyrimidine]", "values": [{"measurement": "EC50", "result": 0.062, "unit": "µM"}]}, {"smiles": "COc1c(N2CCC(c3ccccc3)CC2)ncn2c(CC3CC3)nnc12", "note": "[Example 3, 3-(Cyclopropylmethyl)-8-methoxy-7-(4-phenylpiperidin-1-yl)-[1,2,4]triazolo[4,3-c]pyrimidine]", "values": [{"measurement": "EC50", "result": 0.54, "unit": "µM"}]}, {"smiles": "FC(F)(F)c1c(N2CCC(c3ccccc3)CC2)ncn2c(CC3CC3)nnc12", "note": "[Example 4, 3-(Cyclopropylmethyl)-7-(4-phenylpiperidin-1-yl)-8-(trifluoromethyl)-[1,2,4]triazolo[4,3-c]pyrimidine]", "values": [{"measurement": "EC50", "result": 0.069, "unit": "µM"}]}, {"smiles": "Clc1c(N2CCC(c3ccccc3)CC2)cnn2c(CC3CC3)nnc12", "note": "[Example 5, 8-Chloro-3-(cyclopropylmethyl)-7-(4-phenylpiperidin-1-yl)-[1,2,4]triazolo[4,3-b]pyridazine]", "values": [{"measurement": "EC50", "result": 0.019, "unit": "µM"}]}, {"smiles": "Cc1c(N2CCC(c3ccccc3)CC2)cnn2c(CC3CC3)nnc12", "note": "[Example 6, 3-(Cyclopropylmethyl)-8-methyl-7-(4-phenylpiperidin-1-yl)-[1,2,4]triazolo[4,3-b]pyridazine]", "values": [{"measurement": "EC50", "result": 0.182, "unit": "µM"}]}, {"smiles": "FC(F)(F)c1c(N2CCC(c3ccccc3)CC2)cnn2c(CC3CC3)nnc12", "note": "[Example 7, 3-(Cyclopropylmethyl)-7-(4-phenylpiperidin-1-yl)-8-(trifluoromethyl)-[1,2,4]triazolo[4,3-b]pyridazine]", "values": [{"measurement": "EC50", "result": 0.003, "unit": "µM"}]}, {"smiles": "Clc1c(N2CCC(Cc3ccccc3)CC2)ncn2c(CC3CC3)nnc12", "note": "[Example 8, 7-(4-Benzylpiperidin-1-yl)-8-chloro-3-(cyclopropylmethyl)-[1,2,4]triazolo[4,3-c]pyrimidine]", "values": [{"measurement": "EC50", "result": 0.061, "unit": "µM"}]}, {"smiles": "Fc1ccc([C@@H]2C[C@H]2CNc2cnn3c(CC4CC4)nnc3c2Cl)cc1", "note": "[Example 10, 8-Chloro-3-(cyclopropylmethyl)-N-(((1R,2R)-2-(4-fluorophenyl)cyclopropyl)methyl)-[1,2,4]triazolo[4,3-b]pyridazin-7-amine]", "values": [{"measurement": "EC50", "result": 0.158, "unit": "µM"}]}, {"smiles": "Fc1ccc([C@H]2C[C@@H]2CNc2cnn3c(CC4CC4)nnc3c2Cl)cc1", "note": "[Example 11, 8-Chloro-3-(cyclopropylmethyl)-N-(((1S,2S)-2-(4-fluorophenyl)cyclopropyl)methyl)-[1,2,4]triazolo[4,3-b]pyridazin-7-amine]", "values": [{"measurement": "EC50", "result": 0.06, "unit": "µM"}]}, {"smiles": "COc1c(N2CCC(c3ccc(F)cc3)CC2)ncn2c(CC3CC3)nnc12", "note": "[Example 12, 3-(Cyclopropylmethyl)-7-(4-(4-fluorophenyl)piperidin-1-yl)-8-methoxy-[1,2,4]triazolo[4,3-c]pyrimidine]", "values": [{"measurement": "EC50", "result": 0.519, "unit": "µM"}]}, {"smiles": "COc1c(N2CCC(c3ccc(F)cc3)CC2)ncn2c(CC(C)(C)C)nnc12", "note": "[Example 13, 7-(4-(4-Fluorophenyl)piperidin-1-yl)-8-methoxy-3-neopentyl-[1,2,4]triazolo[4,3-c]pyrimidine]", "values": [{"measurement": "EC50", "result": 0.286, "unit": "µM"}]}, {"smiles": "COc1c(N2CCC(O)(c3ccc(F)cc3)CC2)ncn2c(CC3CC3)nnc12", "note": "[Example 14, 1-(3-(Cyclopropylmethyl)-8-methoxy-[1,2,4]triazolo[4,3-c]pyrimidin-7-yl)-4-(4-fluorophenyl)piperidin-4-ol]", "values": [{"measurement": "EC50", "result": 0.782, "unit": "µM"}]}, {"smiles": "Clc1c(N2CCN(c3ncccn3)CC2)cnn2c(CC3CC3)nnc12", "note": "[Example 15, 8-Chloro-3-(cyclopropylmethyl)-7-(4-(pyrimidin-2-yl)piperazin-1-yl)-[1,2,4]triazolo[4,3-b]pyridazine]", "values": [{"measurement": "EC50", "result": 0.28, "unit": "µM"}]}, {"smiles": "CC(C)(C)Cc1nnc2c(Cl)c(N3CCN(c4ncccn4)CC3)cnn12", "note": "[Example 16, 8-Chloro-3-neopentyl-7-(4-(pyrimidin-2-yl)piperazin-1-yl)-[1,2,4]triazolo[4,3-b]pyridazine]", "values": [{"measurement": "EC50", "result": 0.437, "unit": "µM"}]}, {"smiles": "Fc1ccc(C2CCN(c3cnn4c(CC5CC5)nnc4c3Cl)CC2)cc1", "note": "[Example 17, 8-Chloro-3-(cyclopropylmethyl)-7-(4-(4-fluorophenyl)piperidin-1-yl)-[1,2,4]triazolo[4,3-b]pyridazine]", "values": [{"measurement": "EC50", "result": 0.046, "unit": "µM"}]}, {"smiles": "CC(C)(C)Cc1nnc2c(Cl)c(N3CCC(c4ccc(F)cc4)CC3)cnn12", "note": "[Example 18, 8-Chloro-7-(4-(4-fluorophenyl)piperidin-1-yl)-3-neopentyl-[1,2,4]triazolo[4,3-b]pyridazine]", "values": [{"measurement": "EC50", "result": 0.145, "unit": "µM"}]}, {"smiles": "Fc1ccc(N2CCN(c3cnn4c(CC5CC5)nnc4c3Cl)CC2)cc1", "note": "[Example 19, 8-Chloro-3-(cyclopropylmethyl)-7-(4-(4-fluorophenyl)piperazin-1-yl)-[1,2,4]triazolo[4,3-b]pyridazine]", "values": [{"measurement": "EC50", "result": 0.614, "unit": "µM"}]}, {"smiles": "Clc1c(N2CCC3(C=Cc4ccccc43)CC2)cnn2c(CC3CC3)nnc12", "note": "[Example 20, 8-Chloro-3-(cyclopropylmethyl)-7-(spiro[indene-1,4′-piperidin]-1′-yl)-[1,2,4]triazolo[4,3-b]pyridazine]", "values": [{"measurement": "EC50", "result": 0.145, "unit": "µM"}]}, {"smiles": "Clc1c(NCC2(COc3ccccc3)CC2)cnn2c(CC3CC3)nnc12", "note": "[Example 21, 8-Chloro-3-(cyclopropylmethyl)-N-((1-(phenoxymethyl)cyclopropyl)methyl)-[1,2,4]triazolo[4,3-b]pyridazin-7-amine]", "values": [{"measurement": "EC50", "result": 2.31, "unit": "µM"}]}, {"smiles": "COc1cccc(F)c1C1CCN(c2cnn3c(CC4CC4)nnc3c2Cl)CC1", "note": "[Example 22, 8-Chloro-3-(cyclopropylmethyl)-7-(4-(2-fluoro-6-methoxyphenyl)piperidin-1-yl)-[1,2,4]triazolo[4,3-b]pyridazine]", "values": [{"measurement": "EC50", "result": 0.003, "unit": "µM"}]}, {"smiles": "Fc1ccccc1C1CCN(c2cnn3c(CC4CC4)nnc3c2Cl)CC1", "note": "[Example 23, 8-Chloro-3-(cyclopropylmethyl)-7-(4-(2-fluorophenyl)piperidin-1-yl)-[1,2,4]triazolo[4,3-b]pyridazine]", "values": [{"measurement": "EC50", "result": 0.013, "unit": "µM"}]}, {"smiles": "Fc1cccc(C2CCN(c3cnn4c(CC5CC5)nnc4c3Cl)CC2)c1", "note": "[Example 24, 8-Chloro-3-(cyclopropylmethyl)-7-(4-(3-fluorophenyl)piperidin-1-yl)-[1,2,4]triazolo[4,3-b]pyridazine]", "values": [{"measurement": "EC50", "result": 0.025, "unit": "µM"}]}, {"smiles": "Fc1ccccc1C1CCN(c2cnn3c(CC(F)(F)F)nnc3c2Cl)CC1", "note": "[Example 25, 8-Chloro-7-(4-(2-fluorophenyl)piperidin-1-yl)-3-(2,2,2-trifluoroethyl)-[1,2,4]triazolo[4,3-b]pyridazine]", "values": [{"measurement": "EC50", "result": 0.02, "unit": "µM"}]}, {"smiles": "COc1cccc(F)c1C1CCN(c2cnn3c(CC(F)(F)F)nnc3c2Cl)CC1", "note": "[Example 26, 8-Chloro-7-(4-(2-fluoro-6-methoxyphenyl)piperidin-1-yl)-3-(2,2,2-trifluoroethyl)-[1,2,4]triazolo[4,3-b]pyridazine]", "values": [{"measurement": "EC50", "result": 0.002, "unit": "µM"}]}, {"smiles": "COc1ccccc1C1CCN(c2cnn3c(CC4CC4)nnc3c2Cl)CC1", "note": "[Example 27, 8-Chloro-3-(cyclopropylmethyl)-7-(4-(2-methoxyphenyl)piperidin-1-yl)-[1,2,4]triazolo[4,3-b]pyridazine]", "values": [{"measurement": "EC50", "result": 0.009, "unit": "µM"}]}, {"smiles": "COc1cccc(C2CCN(c3cnn4c(CC5CC5)nnc4c3Cl)CC2)c1", "note": "[Example 28, 8-Chloro-3-(cyclopropylmethyl)-7-(4-(3-methoxyphenyl)piperidin-1-yl)-[1,2,4]triazolo[4,3-b]pyridazine]", "values": [{"measurement": "EC50", "result": 0.038, "unit": "µM"}]}, {"smiles": "Cc1ccccc1C1CCN(c2cnn3c(CC4CC4)nnc3c2Cl)CC1", "note": "[Example 29, 8-Chloro-3-(cyclopropylmethyl)-7-(4-(o-tolyl)piperidin-1-yl)-[1,2,4]triazolo[4,3-b]pyridazine]", "values": [{"measurement": "EC50", "result": 0.021, "unit": "µM"}]}, {"smiles": "COc1ccc(C2CCN(c3cnn4c(CC5CC5)nnc4c3Cl)CC2)cc1", "note": "[Example 30, 8-Chloro-3-(cyclopropylmethyl)-7-(4-(4-methoxyphenyl)piperidin-1-yl)-[1,2,4]triazolo[4,3-b]pyridazine]", "values": [{"measurement": "EC50", "result": 0.018, "unit": "µM"}]}, {"smiles": "COC(=O)c1ccccc1C1CCN(c2cnn3c(CC4CC4)nnc3c2Cl)CC1", "note": "[Example 31, Methyl 2-(1-(8-chloro-3-(cyclopropylmethyl)-[1,2,4]triazolo[4,3-b]pyridazin-7-yl)piperidin-4-yl)benzoate]", "values": [{"measurement": "EC50", "result": 0.038, "unit": "µM"}]}]}
